Columns and labels:
[1] = target: T1, rat mu-opioid receptor (rMOR) (Rattus norvegicus, UniProt P33535); assay: competition with [3H]DAMGO, filtration, CHO-rMOR membranes; format: binding
T1 construct: gene Oprm1; stably expressed in CHO cells (CHO-rMOR); cell membranes

[2] = target: T1, rat mu-opioid receptor (rMOR); assay: […]GTPγS binding, CHO-rMOR membranes; format: biochemical; conditions: O-1966 10 min before 0.5 µM morphine; 10 µM GDP, 50 mM HEPES, 100 mM NaCl, 5 mM MgCl2, 30 °C, 1 h; negative allosteric mode suggested only

T1 sequence (P33535 whole entry): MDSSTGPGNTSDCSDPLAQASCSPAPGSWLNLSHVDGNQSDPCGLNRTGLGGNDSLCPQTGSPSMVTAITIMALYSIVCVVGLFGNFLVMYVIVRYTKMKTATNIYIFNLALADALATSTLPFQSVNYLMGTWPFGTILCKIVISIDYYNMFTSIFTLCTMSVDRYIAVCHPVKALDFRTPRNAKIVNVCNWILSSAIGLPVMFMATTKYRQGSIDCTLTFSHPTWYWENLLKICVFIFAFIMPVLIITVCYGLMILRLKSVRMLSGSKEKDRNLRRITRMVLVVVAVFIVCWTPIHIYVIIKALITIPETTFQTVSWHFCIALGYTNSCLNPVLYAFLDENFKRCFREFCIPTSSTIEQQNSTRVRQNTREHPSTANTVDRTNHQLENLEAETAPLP

SMILES: CCCCCCC(C)(C)c1cc(OC)c(C2(O)CCCC(C)C2)c(OC)c1 (centres unmarked) [O-1966]
- Ki [1]: 3.04 µM
- % reduction of morphine response at 10 μM [2]: 20%
